Here are results for one compound from patent US20250281497A1, “FUSED AMINO PYRIMIDINE COMPOUNDS FOR TREATMENT OF SEIZURE DISORDERS” (Ovid Therapeutics Inc., priority 2024, published 2025).

One data set has as its target T1, KCC2-S940A (Homo sapiens, UniProt Q9H2X9, S963A).
T1 construct: expressed in transfected cells; host or cells: HEK-293
T1 sequence (Q9H2X9 1-1116 isoform Q9H2X9-2 S940A): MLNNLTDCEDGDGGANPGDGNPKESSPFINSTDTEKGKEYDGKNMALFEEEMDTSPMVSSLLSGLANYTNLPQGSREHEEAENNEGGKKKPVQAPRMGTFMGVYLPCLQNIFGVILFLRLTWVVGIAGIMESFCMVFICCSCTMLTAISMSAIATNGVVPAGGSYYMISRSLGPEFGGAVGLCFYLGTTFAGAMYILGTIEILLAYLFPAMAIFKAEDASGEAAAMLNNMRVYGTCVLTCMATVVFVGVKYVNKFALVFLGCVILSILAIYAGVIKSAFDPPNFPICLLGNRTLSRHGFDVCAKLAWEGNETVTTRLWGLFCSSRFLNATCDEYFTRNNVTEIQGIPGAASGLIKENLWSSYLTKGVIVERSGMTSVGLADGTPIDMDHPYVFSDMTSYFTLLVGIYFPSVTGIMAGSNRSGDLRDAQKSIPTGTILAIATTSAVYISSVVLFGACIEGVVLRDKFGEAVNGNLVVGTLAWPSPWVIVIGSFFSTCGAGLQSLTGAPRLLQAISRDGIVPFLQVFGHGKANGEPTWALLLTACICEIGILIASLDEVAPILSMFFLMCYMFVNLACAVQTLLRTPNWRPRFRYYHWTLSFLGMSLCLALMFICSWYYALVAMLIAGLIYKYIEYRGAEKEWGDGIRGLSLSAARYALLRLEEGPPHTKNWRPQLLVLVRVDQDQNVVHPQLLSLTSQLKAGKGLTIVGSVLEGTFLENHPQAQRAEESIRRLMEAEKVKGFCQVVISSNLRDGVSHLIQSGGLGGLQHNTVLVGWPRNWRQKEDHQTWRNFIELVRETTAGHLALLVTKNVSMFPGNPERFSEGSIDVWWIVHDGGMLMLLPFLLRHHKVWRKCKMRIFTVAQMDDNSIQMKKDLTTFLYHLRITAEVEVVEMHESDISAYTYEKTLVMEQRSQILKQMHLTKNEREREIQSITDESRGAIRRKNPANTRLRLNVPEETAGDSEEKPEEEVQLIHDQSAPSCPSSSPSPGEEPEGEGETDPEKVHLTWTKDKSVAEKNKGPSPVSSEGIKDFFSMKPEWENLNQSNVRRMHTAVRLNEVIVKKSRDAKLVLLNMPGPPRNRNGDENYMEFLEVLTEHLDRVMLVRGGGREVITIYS
Briefly: Tl+ flux assay, KCC2-S940A construct. The data set is classed as cell-based. The settings on record: HEK-293. As for the experimental part: FLIPR TI Flux assay. HEK-293 cells were washed with HBSS, and then incubated with loading buffer containing TI sensitive fluorescent dye (https://www.moleculardevices.com), 20 μM bumetanide 20 μM ouabain and 2.5 mM probenecid for 1 h at room temperature (RT) under control conditions or with drugs in the dark using a FlexStation 3 microplate reader (Molecular Devices) and imaged […] for 30 min. Stimulus buffer was added containing 5 mM K^+/0.5 mM Tl^+ and cells were imaged every 1.5 over a 190 second time course The initial rate Tl^+ uptake (Relative Fluorescence Units (RFU) per second) was determined following addition of the stimulus buffer as outlined previously (Conway et at, 2017, supra) (Lee et at, 2022, supra).
Several studies have shown that the activity and plasma membrane accumulation of KCC2 is potentiated via phosphorylation of S940, a process mediated by the activity of protein kinase C and protein phosphatase 1 (Lee et al., 2011, supra; Lee et al., J Biol Chem 282, 29777-29784 (2007); Moore et al., Proc. Natl. Acad. Sci. U.S.A. 115, 10166-10171 (2018); Moore et al., Trends Neurosci. 40, 555-571 (2017); Silayeva et al., Proc. Natl. Acad. Sci. U.S.A. 112, 3523-3528 (2015)). […] Compared to KCC2, effects on KCC3, KCC4, and NKCC1 were only seen at concentrations more than 35-fold that of KCC2 (>100 μM) (FIG. 1G).

A short description of data set [1]: PK studies, brain and plasma levels by LC-MS/MS. The data set is classed as in vivo, mice. The settings on record: for concentration at 30 min: 25 mg/kg IV bolus, within 30 minutes. How it is done:
PK studies. […] Plasma and brain samples were rapidly frozen on dry ice.
Drug accumulation in the brain was examined following SC injection (FIG. 4C; 50 mg/kg).

Where two headings read alike, the source gives them in different places.

Regarding `C[C@@H]1CN(c2nc3c(c(Nc4ccc(C5CCCCC5)cc4)n2)COC3)CCO1` [Compound A, (R)—N-(4-cyclohexylphenyl)-2-(2-methylmorpholino)-5,7-dihydrofuro[3,4-d]pyrimidin-4-amine], the “activity of KCC2-S940A construct” value at KCC2-S940A is on record as “increased the activity”. The “time of maximal concentration in brain” value in data set [1] (50 mg/kg SC) was determined as 4 h. The “brain level 8h after SC injection” value in data set [1] (50 mg/kg SC, 8h) is reported as “a level that was maintained 8h later”. The “maximal concentration in brain” value in data set [1] (50 mg/kg SC, at 4 hr) is recorded as greater than 600 nM. The same compound came in with a concentration at 2 hr in data set [1] (mouse, brain, intraperitoneal, 50 mg/kg IP, 2 hr) of 2.67 ± 0.21 µM. The compound also yielded a concentration at 4 hr in data set [1] (mouse, brain, intraperitoneal, 50 mg/kg IP, 4 hr) of 4.1 ± 0.13 µM. The concentration at 30 min in data set [1] (mouse, brain, read-out: concentration in brain) is 7.6 ± 4.4 µM; in data set [1] (mouse, plasma, read-out: concentration in plasma) it was 41.5 ± 11.5 µM.
